Biological target: T1, human D4 receptors (Homo sapiens, UniProt P21917)
T1 construct: expressed in transfected cells
T1 sequence (P21917 1-419): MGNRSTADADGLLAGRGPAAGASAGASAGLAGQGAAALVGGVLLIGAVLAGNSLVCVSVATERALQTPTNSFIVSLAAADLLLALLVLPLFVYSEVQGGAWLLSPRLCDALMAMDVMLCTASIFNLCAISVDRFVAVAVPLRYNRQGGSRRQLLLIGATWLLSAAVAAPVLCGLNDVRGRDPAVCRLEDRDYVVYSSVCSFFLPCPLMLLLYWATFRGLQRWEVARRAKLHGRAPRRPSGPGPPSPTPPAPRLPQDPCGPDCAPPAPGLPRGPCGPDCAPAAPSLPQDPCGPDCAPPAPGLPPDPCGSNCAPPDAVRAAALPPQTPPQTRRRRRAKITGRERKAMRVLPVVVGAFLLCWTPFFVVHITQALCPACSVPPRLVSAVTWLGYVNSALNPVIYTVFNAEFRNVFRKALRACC
Assay: Functional antagonist assay: reversal of dopamine inhibition of forskolin-stimulated adenyl cyclase (cAMP)
Type: cell-based
Conditions: dopamine and forskolin both 10 μM, read-out: % REVERSAL OF DOPAMINE EFFECT
Protocol: The D4 receptor responds to dopamine and other agonists by reducing adenyl cyclase mediated production of cyclic AMP. Particular test compounds were assayed for their ability to reverse dopamine inhibition of adenyl cyclase by the following procedure. Forskolin was used to elevate the basal adenyl cyclase activity.
CHO Pro 5 cells stably expressing human D4 receptors were plated in 6 well plates in DMEM (Dulbecco's Modified Eagle Medium)/F12(Nutrient Mixture F12 (Ham)) media with 10% FCS (fetal calf serum) and G418 (Geneticen Disulfate), and incubated at 37° C. in a CO2 incubator. The cells were allowed to grow to about 70% confluence before use in the assay.
The culture media of each well was removed by aspiration, and the wells were washed once with serum free media (SFM) (DMEM/F12) media. Then 2 mL of fresh SFM+IBMX media (SFM with 0.5 mM IBMX (3-isobutyl-1-methylxanthine0.1% ascorbic acid and 10 μM pargyline) was added to each well and then incubated at 37° C. for 10 minutes in CO2 incubator. Following incubation, SFM+IBMX media was aspirated and fresh SFM+IBMX media was added to wells separately with one of a) forskolin (10 μM final conc.); b) dopamine and forskolin (both 10 μM final conc.); and c) test compound ([…]), and dopamine and forskolin (both 10 μM final conc.). Basal adenyl cyclase activity was determined from wells with only SFM+IBMX media added.
The cells were then incubated at 37° C. for 30 minutes in a CO2 incubator. Following incubation the media was aspirated from each well and then washed once with 2 mL of PBS (phosphate buffered saline). Each well was then treated with 1 mL cold 95% ethanol:5 mM EDTA (2:1) at 4° C. for 1 h. The cells from each well were then scraped and transferred into individual Eppendorf tubes. The tubes were centrifuged for 5 minutes at 4° C., and the supernatants were transferred to new Eppendorf tubes. The pellets were discarded and the supernatants dried using a SpeedVac. The extracts were then reconstituted in 600 μL of 0.1M sodium acetate buffer, pH 6.1, and stored at 4° C. until assayed for cAMP concentration. cAMP content measured in fmoles/well for each extract was determined by EIA (enzyme-immunoassay) using Amersham Biotrak cAMP EIA kit (Amersham RPN 225).
Total inhibition (IO) of forskolin-stimulated adenyl cyclase activity by dopamine was determined as the difference in concentration of cAMP in the forskolin-treated cells (Cf) and dopamine-forskolin treated cells (Cd).
Net inhibition (I) of forskolin-stimulated adenyl cyclase activity by dopamine in the presence of an antagonist was determined as the difference in concentration of cAMP in the forskolin-treated cells (Cf) and test compound, dopamine and forskolin treated cells (C).
The ability of a test compound to reverse the dopamine inhibition (% reversal, %R) was determined by the formula: […]

| Structure (SMILES) | inhibition at 1 µM | inhibition at 10 µM |
| --- | --- | --- |
| Clc1ccc2c(c1)C=C(N1CCN(Cc3ccc4c(c3)OCO4)CC1)c1ccccc1S2 [2-chloro-10-(4-piperonyl-1-piperazinyl)dibenzo[b,f]thiepine] | 47% | 40% |
| Clc1ccc2c(c1)Nc1ccccc1N=C2N1CCN(Cc2ccc3c(c2)OCO3)CC1 [3-chloro-11-(4-piperonyl-1-piperazinyl)-5H-dibenzo[b,e][1,4]diazepine] | 19% | 50% |
| Clc1ccc2c(c1)N=C(N1CCN(Cc3ccc4c(c3)OCO4)CC1)c1ccccc1O2 [8-chloro-11-(4-piperonyl)-1-piperazinyl)dibenz[b,f][1,4]oxazepine] | 46% | 68% |
| c1ccc2c(c1)N=C(N1CCN(Cc3ccc4c(c3)OCO4)CC1)c1ccccc1O2 [11-(4-piperonyl)-1-piperazinyl)-dibenz[b,f][1,4]oxazepine] | 40% | 50% |

— patent US5798350A, “Dopamine receptor ligands” (Allelix Biopharmaceuticals, Inc., priority 1996, dated 1998)
